Measured values taken from publication PMC12860872, “Preclinical evaluation of DOTAGA.Glu.(FAPI)2 and DO3A.Glu.(FAPI)2 as theranostics with human dosimetry extrapolation to lutetium-177 and terbium-161 analogs” (European Journal of Nuclear Medicine and Molecular Imaging, 2025).
Values joined by “and” are separate entries in the source; they are usually repeats but may differ in a detail not shown here. Identical values can stand only once.

Assay: Extrapolated human dosimetry (OLINDA/EXM, ICRP-89 phantoms)
Design: TIAC average pancreas: unit not given beside the values; TIAC average stomach / TIAC average Small Intestine / TIAC average Left Column / TIAC average Rectum / TIAC average adrenal / TIAC average bone / TIAC average Red marrow / TIAC average salivary glands / TIAC average ROB / TIAC average Total Frac IA / TIAC average heart content / TIAC average heart wall / TIAC average liver / TIAC average spleen / TIAC average lung / TIAC average kidney: unit not given here
How it was run: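 Mouse TIACs from time integration of nTACs (mean and mean ±1 SD fits, giving upper/lower bounds) were scaled to human using relative organ-to-body mass ratios (MOBY mouse, ICRP-89 phantoms). OLINDA/EXM gave organ absorbed doses and effective dose for male, female and gender-averaged adults; terbium-161 decay data replaced lutetium-177 for Tb-161 estimates.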

[1] = ICRP 89 Adult Female, extrapolated
[2] = ICRP 89 Adult Male, extrapolated
[3] = human extrapolation, male-female range

## N#C[C@@H]1CC(F)(F)CN1C(=O)CNC(=O)c1ccnc2ccc(OCCCCNC(=O)CC[C@H](NC(=O)CN3CCN(CC(=O)[O-])CCN(CC(=O)[O-])CCN(CC(=O)[O-])CC3)C(=O)NCCCCOc3ccc4nccc(C(=O)NCC(=O)N5CC(F)(F)C[C@H]5C#N)c4c3)cc12.[177Lu+3] [[^177Lu]Lu-DO3A.Glu.(FAPI)2]
[1]
  Absorbed dose (AD average) Adrenals: 9.96E-03 mGy/Mbq
  Absorbed dose (AD average) Brain: 2.63E-02 mGy/Mbq
  Absorbed dose (AD average) Breasts: 2.57E-02 mGy/Mbq
  Absorbed dose (AD average) Esophagus: 2.66E-02 mGy/Mbq
  Absorbed dose (AD average) Eyes: 2.63E-02 mGy/Mbq
  Absorbed dose (AD average) Gallbladder Wall: 2.80E-02 mGy/Mbq
  Absorbed dose (AD average) Heart Wall: 2.49E-02 mGy/Mbq
  Absorbed dose (AD average) Kidneys: 2.54E-02 ± 0.001 mGy/Mbq and 2.54E-02 mGy/Mbq
  Absorbed dose (AD average) Left colon: 6.93E-02 mGy/Mbq
  Absorbed dose (AD average) Liver: 7.30E-02 ± 0.003 mGy/Mbq and 7.30E-02 mGy/Mbq
  Absorbed dose (AD average) Lungs: 4.16E-02 ± 0.01 mGy/Mbq and 4.16E-02 mGy/Mbq
  Absorbed dose (AD average) Osteogenic Cells: 6.24E-02 ± 0.002 mGy/Mbq and 6.24E-02 mGy/Mbq
  Absorbed dose (AD average) Ovaries: 2.76E-02 mGy/Mbq
  Absorbed dose (AD average) Pancreas: 2.62E-02 ± 0.001 mGy/Mbq and 2.62E-02 mGy/Mbq
  Absorbed dose (AD average) Rectum: 7.09E-02 mGy/Mbq
  Absorbed dose (AD average) Red Marrow: 3.06E-02 ± 0.001 mGy/Mbq and 3.06E-02 mGy/Mbq
  Absorbed dose (AD average) Right colon: 4.88E-02 mGy/Mbq
  Absorbed dose (AD average) Salivary Glands: 8.81E-02 ± 0.01 mGy/Mbq and 8.81E-02 mGy/Mbq
  Absorbed dose (AD average) Small Intestine: 4.29E-02 ± 0.003 mGy/Mbq and 4.29E-02 mGy/Mbq
  Absorbed dose (AD average) Spleen: 6.42E-02 ± 0.003 mGy/Mbq and 6.42E-02 mGy/Mbq
  Absorbed dose (AD average) Stomach Wall: 3.65E-02 mGy/Mbq
  Absorbed dose (AD average) Thymus: 2.70E-02 mGy/Mbq
  Absorbed dose (AD average) Thyroid: 2.64E-02 mGy/Mbq
  Absorbed dose (AD average) Total Body: 3.44E-02 ± 0.002 mGy/Mbq and 3.44E-02 mGy/Mbq
  Absorbed dose (AD average) Urinary Bladder Wall: 2.73E-02 mGy/Mbq
  Absorbed dose (AD average) Uterus: 2.76E-02 mGy/Mbq
  Effective dose (average): 3.49E-02
[2]
  Absorbed dose (AD average) Adrenals: 7.77E-03 mGy/Mbq
  Absorbed dose (AD average) Brain: 2.00E-02 mGy/Mbq
  Absorbed dose (AD average) Esophagus: 2.06E-02 mGy/Mbq
  Absorbed dose (AD average) Eyes: 2.00E-02 mGy/Mbq
  Absorbed dose (AD average) Gallbladder Wall: 2.20E-02 mGy/Mbq
  Absorbed dose (AD average) Heart Wall: 2.04E-02 mGy/Mbq
  Absorbed dose (AD average) Kidneys: 2.09E-02 ± 0.001 mGy/Mbq and 2.09E-02 mGy/Mbq
  Absorbed dose (AD average) Left colon: 5.77E-02 mGy/Mbq
  Absorbed dose (AD average) Liver: 6.00E-02 ± 0.002 mGy/Mbq and 6.00E-02 mGy/Mbq
  Absorbed dose (AD average) Lungs: 3.40E-02 ± 0.01 mGy/Mbq and 3.40E-02 mGy/Mbq
  Absorbed dose (AD average) Osteogenic Cells: 6.64E-02 ± 0.002 mGy/Mbq and 6.64E-02 mGy/Mbq
  Absorbed dose (AD average) Pancreas: 2.12E-02 ± 0.001 mGy/Mbq and 2.12E-02 mGy/Mbq
  Absorbed dose (AD average) Prostate: 2.07E-02 mGy/Mbq
  Absorbed dose (AD average) Rectum: 5.76E-02 mGy/Mbq
  Absorbed dose (AD average) Red Marrow: 2.43E-02 ± 0.001 mGy/Mbq and 2.43E-02 mGy/Mbq
  Absorbed dose (AD average) Right colon: 3.94E-02 mGy/Mbq
  Absorbed dose (AD average) Salivary Glands: 7.27E-02 ± 0.01 mGy/Mbq and 7.27E-02 mGy/Mbq
  Absorbed dose (AD average) Small Intestine: 3.27E-02 ± 0.002 mGy/Mbq and 3.27E-02 mGy/Mbq
  Absorbed dose (AD average) Spleen: 5.27E-02 ± 0.002 mGy/Mbq and 5.27E-02 mGy/Mbq
  Absorbed dose (AD average) Stomach Wall: 2.83E-02 mGy/Mbq
  Absorbed dose (AD average) Testes: 2.00E-02 mGy/Mbq
  Absorbed dose (AD average) Thymus: 2.03E-02 mGy/Mbq
  Absorbed dose (AD average) Thyroid: 2.04E-02 mGy/Mbq
  Absorbed dose (AD average) Total Body: 2.71E-02 ± 0.001 mGy/Mbq and 2.71E-02 mGy/Mbq
  Absorbed dose (AD average) Urinary Bladder Wall: 2.07E-02 mGy/Mbq
ICRP 89 Adult Male, extrapolated, in mSv/MBq (unit assumed)
  Effective dose (average): 2.56E-02
[3]
  absorbed dose kidneys: 0.02–0.03 Gy/GBq
  absorbed dose liver: 0.06–0.07 Gy/GBq
  absorbed dose salivary glands: 0.07–0.09 Gy/GBq
  total body and effective doses: 0.027–0.034 Gy/GBq
Human female, extrapolated
  TIAC average Left Column: 0.0781
  TIAC average ROB: 16.8035
  TIAC average Rectum: 0.0808
  TIAC average Red marrow: 0.2208
  TIAC average Small Intestine: 0.1025
  TIAC average Total Frac IA: 21.2881
  TIAC average adrenal: 0.0008
  TIAC average bone: 2.8185
  TIAC average heart content: 0.0908
  TIAC average heart wall: 0.0329
  TIAC average kidney: 0.0717
  TIAC average liver: 1.1228
  TIAC average lung: 0.4313
  TIAC average pancreas: 0.0313
  TIAC average salivary glands: 0.0707
  TIAC average spleen: 0.0929
  TIAC average stomach: 0.0501
Human male, extrapolated
  TIAC average Left Column: 0.0642
  TIAC average ROB: 15.5056
  TIAC average Rectum: 0.0642
  TIAC average Red marrow: 0.2359
  TIAC average Small Intestine: 0.0958
  TIAC average Total Frac IA: 21.2881
  TIAC average adrenal: 0.0007
  TIAC average bone: 3.1852
  TIAC average heart content: 0.1028
  TIAC average heart wall: 0.0357
  TIAC average kidney: 0.0664
  TIAC average liver: 1.1865
  TIAC average lung: 0.4477
  TIAC average pancreas: 0.0300
  TIAC average salivary glands: 0.0706
  TIAC average spleen: 0.0881
  TIAC average stomach: 0.0446
